Legend:
Format in all cases: biochemical
[1] = biological target: T1, catalytic domain of MMP-13 enzyme (Homo sapiens, UniProt P45452); test: Assay for determining MMP-13 inhibition (fluorescent substrate); settings: Table 1, activity group
T1 construct: stock solution of catalytic domain of MMP-13 enzyme (produced by Alantos or commercially available from Invitek (Berlin), Cat.# 30100812); purchased Invitek (Berlin) 30100812
Experimental: (§1) The typical assay for MMP-13 activity is carried out in assay buffer comprised of 50 mM Tris, pH 7.5, 150 mM NaCl, 5 mM CaCl2 and 0.05% Brij-35. Different concentrations of tested compounds are prepared in assay buffer in 50 μL aliquots. […] The mixture of enzyme and compound in assay buffer is thoroughly mixed and incubated for 10 min at room temperature. […] The time-dependent increase in fluorescence is measured at the 320 nm excitation and 390 nm emission by automatic plate multireader. The IC50 values are calculated from the initial reaction rates.

activated MMP-8 enzyme = biological target: T2, activated MMP-8 enzyme (Homo sapiens, UniProt P22894); test: Assay for determining MMP-8 inhibition (fluorescent substrate); settings: Table 2, activity group
T2 construct: purchased Calbiochem 444229
T2 sequence (P22894 101-467): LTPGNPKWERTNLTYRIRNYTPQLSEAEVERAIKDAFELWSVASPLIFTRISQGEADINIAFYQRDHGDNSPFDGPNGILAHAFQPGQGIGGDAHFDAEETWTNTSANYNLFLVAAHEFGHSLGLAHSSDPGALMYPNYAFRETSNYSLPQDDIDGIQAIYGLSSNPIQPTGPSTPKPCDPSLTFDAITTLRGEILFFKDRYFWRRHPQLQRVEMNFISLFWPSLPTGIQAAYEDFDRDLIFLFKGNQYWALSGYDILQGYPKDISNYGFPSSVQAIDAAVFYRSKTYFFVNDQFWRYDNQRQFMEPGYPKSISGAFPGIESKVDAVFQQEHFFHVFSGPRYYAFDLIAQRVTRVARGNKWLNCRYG
Experimental: as §1, with “MMP-8” for “MMP-13”, “37° C.” for “room temperature.”, “by an” for “by”, “multireader at 37° C.” for “multireader.”

[2] = biological target: T3, catalytic domain of MMP-3 enzyme (Homo sapiens, UniProt P08254); test: Assay for determining MMP-3 inhibition (NFF-3 fluorescent substrate); settings: Table 3, activity group
T3 construct: stock solution of the catalytic domain of MMP-3 enzyme (Biomol, Cat. No. SE-109); purchased Biomol SE-109
T3 sequence (P08254 100-272 limits assumed): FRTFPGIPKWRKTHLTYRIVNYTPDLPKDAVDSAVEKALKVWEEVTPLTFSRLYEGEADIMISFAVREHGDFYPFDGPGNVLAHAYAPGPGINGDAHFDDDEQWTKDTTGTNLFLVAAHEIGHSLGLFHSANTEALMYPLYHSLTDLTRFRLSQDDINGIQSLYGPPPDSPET
Experimental: as §1, with “MMP-3” for “MMP-13”, “MES,” for “Tris,”, “6.0, 10” for “7.5, 150 mM NaCl, 5”, “330” for “320”, “by an” for “by”

Row | SMILES | IC50 [1] | IC50 (activated MMP-8 enzyme) | IC50 [2]
1 | O=C1COc2ccc(CNC(=O)c3nc4sc5c(c4c(=O)[nH]3)CCCS(=O)(=O)C5)cc2N1 [Example 22/1] | < 100 nM | < 250 nM | 250 to 20000 nM
2 | O=C1COc2ccc(CNC(=O)c3nc4sc5c(c4c(=O)[nH]3)CCS(=O)(=O)C5)cc2N1 [2/103] | < 100 nM | < 250 nM | < 250 nM
3 | O=C1COc2ccc(CNC(=O)c3nc4sc5c(c4c(=O)[nH]3)CCCS5(=O)=O)cc2N1 [Example 22] | < 100 nM | 250 to 20000 nM | 250 to 20000 nM
4 | CS(=O)(=O)N1Cc2sc3nc(C(=O)NCc4ccc5c(c4)NC(=O)CO5)[nH]c(=O)c3c2C1 [42/2] | < 100 nM | < 250 nM | < 250 nM
5 | CC(C)(C)OC(=O)N1CCc2sc3nc(C(=O)NCc4ccc5c(c4)NC(=O)CO5)[nH]c(=O)c3c2CC1 [2/171] | < 100 nM | < 250 nM | 250 to 20000 nM
6 | O=C1COc2ccc(CNC(=O)c3nc4sc5c(c4c(=O)[nH]3)CCC[S+]([O-])C5)cc2N1 (stereo not drawn) [Example 26] | < 100 nM | < 250 nM | 250 to 20000 nM
7 | O=C(O)CNC(=O)C1CCc2sc3nc(C(=O)NCc4ccc5c(c4)NC(=O)CO5)[nH]c(=O)c3c21 (stereo not drawn) [15/2] | < 100 nM | < 250 nM | 250 to 20000 nM
8 | O=C1COc2ccc(CNC(=O)c3nc4sc5c(c4c(=O)[nH]3)CCOCC5)cc2N1 [2/211] | < 100 nM | < 250 nM | 250 to 20000 nM
9 | CC1SCc2sc3nc(C(=O)NCc4ccc5c(c4)CN(c4c(N)c(=O)c4=O)CC5)[nH]c(=O)c3c21 (stereo not drawn) [2/132] | < 100 nM | < 250 nM | 250 to 20000 nM
10 | CCOC(=O)C1CCc2sc3nc(C(=O)NCc4ccc5c(c4)CN(c4c(N)c(=O)c4=O)CC5)[nH]c(=O)c3c2C1 (stereo not drawn) [2/209] | < 100 nM | < 250 nM | 250 to 20000 nM
11 | CC(=O)N1CCc2c(sc3nc(C(=O)NCc4ccc5c(c4)CN(c4c(N)c(=O)c4=O)CC5)[nH]c(=O)c23)C1 [2/95] | < 100 nM | < 250 nM | 250 to 20000 nM

Source: patent US7749996B2, “Heterotricyclic metalloprotease inhibitors” (Alantos Pharmaceutical Holdings, Inc., priority 2006, dated 2010)
